This note sets out measurements from US20060198832A1, “Peptide drugs for chronic lymphocytic leukemia (CLL) and other cancers” (priority 2004, published 2006).

Where a SMILES comes first, the peptide text is derived from it. Bridges are numbered along the chain shown (N, C = ends). Roman numbers before positions name the chains, in order. Where no end group is shown, it is not given here. [ ]: non-standard residue; d: D form. Ahx = NCCCCCC(=O)O

The test system of one series is CLL cells. The experiment in a line: CLL cell viability, cell permeable peptides added directly to culture without electroporation. Particulars: for change in viability: TJK197 patient CLL cells, FIG. 4. In kind it is cell-based, human. The source says: Peripheral blood mononuclear cells (PBMC) from patients with chronic lymphocytic leukemia (CLL) were obtained from the CLL Research Consortium (CRC) tissue bank. Briefly, heparinized peripheral blood was obtained from patients diagnosed with B-CLL according to standard criteria (Chenson et al., Blood 87:4990-4997 (1996)). Lymphocytes were isolated by Ficoll density-gradient centrifugation and verified by immunofluorescence flow cytometry to be composed of greater than 95% CD5/CD19/CD23 triple positive B cells. CLL samples were incubated at 1×10^6 cells/ml in RPMI media supplemented with 10% FBS (fetal bovine serum) and 1 mM L-glutamine and antibiotics (penicillin/streptomycin) at 37° C. with 5% CO2 for 24 hours. CLL cells were electroporated with a dimethyl sulfoxide (DMSO) control or peptides essentially as described in Eksioglu-Demiralp et al., J. Immunol. Methods 275:41-56 (2003), and Schimmer et al., Cancer Res. 63:1242-1248 (2003).
For evaluation of apoptosis, at least 5×10^5 cells were recovered by centrifugation and double-stained with Annexin V-FITC, an early marker of apoptosis, and propidium iodide (PI), a nucleic acid-binding vital dye, followed by flow-cytometric analysis using the FL-1 and FL-3 channels of a Becton Dickinson flow cytometer (FACSort; San Jose, Calif.).
The wild type and modified BAD peptides fused to poly-arginine cell penetration sequences shown in Table 5 were synthesized by standard solid phase synthesis. CLL cell viability assays were performed as described above except that cell permeable peptides SEQ ID NOS: 28, 6 and 29 and the control, non-permeable peptide SEQ ID NO: 3 (see Table 5) were added directed to CLL cells in culture without electroporation.

In series [1] the test system is Bcl-2. Description: BD Cytometric Bead Assay of Bcl-2 levels in peptide treated CLL cells. Format: cell-based, human. Particulars: TJK160 and TJK357 CLL patient cells, incubated with peptide for four hours, FIG. 5. The procedure: TJK160 and TJK357 CLL patient cells were treated with the modified BAD peptide SEQ ID NO: 6 or with control peptides SEQ ID NO: 29 and SEQ ID NO: 30 essentially as described above. To determine the levels of Bcl-2 in each of the peptide treated CLL samples, a BD™ Cytometric Bead Assay (BD CBA; BD Biosciences) was used to quantitatively measure active caspase-3, cleaved PARP and Bcl-2 levels in a single sample. In this assay, soluble analytes are measured using amplified fluorescence detection and flow cytometry, with each bead in a CBA providing a capture surface for a specific protein and being analogous to an individually coated well in an ELISA plate. A single bead population with a distinct fluorescence intensity is coated with a capture antibody specific for active caspase-3 protein, cleaved PARP protein or Bcl-2 protein and subsequently resolved in the FL3 channel of a BD FACSTM brand flow cytometer. The capture bead, PE-conjugated detection antibody, and cell lysate standard or test samples are incubated together to form sandwich complexes and analyzed using BD CBA Analysis Software. Cells were lysed in 1× CBA Cell Lysis Buffer supplemented with Protease Inhibitor Cocktail according to the manufacturer's protocol. Human active caspase-3, cleaved PARP and Bcl-2 lysate standards were reconstituted in deionized water at room temperature for 15 minutes. The standard was diluted by serial dilutions using assay diluent according to the manufacturer's protocol. Capture beads were vortexed before use, and 50 μl of capture beads were transferred to each assay tube. Standard dilutions and test samples were added to the appropriate sample tubes (50 μl/tube) and incubated at room temperature for one hour. […] After addition of 300 μl of Wash Buffer, samples were analyzed by the BD FACScan or BD FACSCalibur. Samples were analyzed by the use of BD CellQuest Software, and data were acquired by the use of the BD CBA Software. […]

In series [2] the test system is chronic lymphocytic leukemia (CLL) cells. Description: viability/apoptosis of CLL cells electroporated with peptides (Annexin V-FITC/PI flow cytometry). Format: cell-based, human. From the text: Peripheral blood mononuclear cells (PBMC) from patients with chronic lymphocytic leukemia (CLL) were obtained from the CLL Research Consortium (CRC) tissue bank. Briefly, heparinized peripheral blood was obtained from patients diagnosed with B-CLL according to standard criteria (Chenson et al., Blood 87:4990-4997 (1996)). Lymphocytes were isolated by Ficoll density-gradient centrifugation and verified by immunofluorescence flow cytometry to be composed of greater than 95% CD5/CD19/CD23 triple positive B cells. […] CLL cells were electroporated with a dimethyl sulfoxide (DMSO) control or peptides essentially as described in […] et al., J. Immunol. Methods 275:41-56 (2003), and […] et al., Cancer Res. 63:1242-1248 (2003). For evaluation of apoptosis, at least 5×10^5 cells were recovered by centrifugation and double-stained with Annexin V-FITC, an early marker of apoptosis, and propidium iodide (PI), a nucleic acid-binding vital dye, followed by flow-cytometric analysis using the FL-1 and FL-3 channels of a Becton Dickinson flow cytometer (FACSort; San Jose, Calif.).
(In general: In flow cytometry, cells or beads pass a laser one at a time.)

For series [3], the system named is acute myelogenous leukemia (AML) cells. The experiment in a line: cell viability/apoptosis in patient AML cells. Format: cell-based, human. The protocol:
(§1) The peptides were tested in cell viability assays essentially as described above in Examples I and II. Experiments were carried out in 697-neo and 697-Bcl-2 cells. 697 cells are from a cell line of preB leukemic cells. 697-Bcl-2 cells have been engineered to express high levels of Bcl-2. AML-349 and AML-728 are myeloblasts (verified by FACS analysis via CD34-positivity) that were isolated from respective patients with acute myelogenous leukemia (AML).

A further series concerns 697-neo cells. Description: cell viability assay in 697-neo cells. Format: cell-based. Particulars: low Bcl-2, FIG. 6. The protocol:
as §1

The target of a further series is Bcl-2 family Bcl-2/x1 (Homo sapiens, UniProt P10415). Description: binding of penetratin-linked peptides to Bcl-2 (method not described).
For series [4], the target named is T1, Bcl-2 (UniProt P10415 1-239, limits assumed).
T1 construct: also called Bcl-2 protein
The experiment in a line: inferred from cell viability of 697-neo against 697-Bcl2 cells.

Bcl-2 family Bcl-2/x1, sequence (P10415 1-205): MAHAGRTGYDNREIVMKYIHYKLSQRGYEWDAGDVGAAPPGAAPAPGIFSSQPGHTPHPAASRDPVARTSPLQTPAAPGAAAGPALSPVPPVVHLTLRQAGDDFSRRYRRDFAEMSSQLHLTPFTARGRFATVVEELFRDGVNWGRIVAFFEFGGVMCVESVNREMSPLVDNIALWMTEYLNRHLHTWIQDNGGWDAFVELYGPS
T1 sequence (P10415 whole entry): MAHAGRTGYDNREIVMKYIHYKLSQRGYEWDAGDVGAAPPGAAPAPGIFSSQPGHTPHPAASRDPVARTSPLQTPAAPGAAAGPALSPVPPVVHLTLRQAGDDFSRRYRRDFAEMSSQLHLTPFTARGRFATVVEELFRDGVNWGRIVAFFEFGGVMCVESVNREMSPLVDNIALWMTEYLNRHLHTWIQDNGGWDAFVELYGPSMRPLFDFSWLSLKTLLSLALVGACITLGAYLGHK

Consider `CSCC[C@H](NC(=O)[C@H](CCCNC(=N)N)NC(=O)[C@H](CCCNC(=N)N)NC(=O)[C@H](CC(C)C)NC(=O)[C@H](CCC(=O)O)NC(=O)[C@H](CCCNC(=N)N)NC(=O)CNC(=O)[C@H](Cc1ccc(O)cc1)NC(=O)[C@H](CCCNC(=N)N)NC(=O)[C@H](CCC(N)=O)NC(=O)[C@H](C)NC(=O)[C@H](C)NC(=O)[C@H](Cc1c[nH]c2ccccc12)NC(=O)[C@H](CC(C)C)NC(=O)[C@@H](N)CC(N)=O)C(=O)N[C@@H](C)C(=O)N[C@@H](CC(=O)O)C(=O)N[C@@H](CCC(=O)O)C(=O)N[C@@H](Cc1ccccc1)C(=O)N[C@H](C(=O)N[C@@H](CC(=O)O)C(=O)N[C@@H](C)C(=O)N[C@@H](Cc1ccccc1)C(=O)N[C@@H](CCCCN)C(=O)N[C@@H](CCCCN)C(=O)N[C@@H](CS)C(=O)NCCCCCC(=O)N[C@H](CCCNC(=N)N)C(=O)N[C@H](CCCNC(=N)N)C(=O)N[C@H](CCCNC(=N)N)C(=O)N[C@H](CCCNC(=N)N)C(=O)N[C@H](CCCNC(=N)N)C(=O)N[C@H](CCCNC(=N)N)C(=O)N[C@H](CCCNC(=N)N)C(=O)N[C@H](CCCNC(=N)N)C(=O)O)C(C)C` [SEQ ID NO: 6] (H-NLWAAQRYGRELRRMADEFVDAFKKC[Ahx][dR][dR][dR][dR][dR][dR][dR][dR]-OH; N-terminus and C-terminus assumed), for which, in the series with CLL cells (patient TJK379 CLL cells, FIG. 3), the “cell viability, dose response” value was “dose-dependent decrease in cell viability”. Besides, the percentage cell viability entry in the series with CLL cells (patient TJK379 CLL cells, as little as 15 μM peptide) is listed as “dramatically reduced”. Further, the “intracellular levels of Bcl-2” value in the series on Bcl-2 [1] is “significant reduction in intracellular levels of Bcl-2”.

Consider “AVPIAQK-Ahx-(DArg)8 (AVPIAQK[Ahx][dR][dR][dR][dR][dR][dR][dR][dR]) [SEQ ID NO: 30, control peptide with poly(DArg)]”, for which the “intracellular levels of Bcl-2” value in the series on Bcl-2 [1] is “not observed”.

Molecule “NLWAAQRYGREARRMAAEFVDAFKK [SEQ ID NO: 4]” had a cell viability (Induction of Apoptosis in CLL Cells), patient sample JCB 178 in series [2] (CLL patient sample JCB 178, peptide electroporated) of 38%. This molecule returned a cell viability (Induction of Apoptosis in CLL Cells), patient sample MA G15 in series [2] (CLL patient sample MA G15, peptide electroporated) of 20%. Besides, in series [2] (CLL patient sample TJK 328, peptide electroporated), the cell viability (Induction of Apoptosis in CLL Cells), patient sample TJK 328 worked out at 26%. Besides, in series [2] (CLL patient sample TJK 340 #1, peptide electroporated), the cell viability (Induction of Apoptosis in CLL Cells), patient sample TJK 340 #1 came to 46%. In series [2] (CLL patient sample TJK 340 #2, peptide electroporated), the cell viability (Induction of Apoptosis in CLL Cells), patient sample TJK 340 #2 came out at 45%. The same molecule yielded a cell viability (Induction of Apoptosis in CLL Cells), patient sample TJK 375 in series [2] (CLL patient sample TJK 375, peptide electroporated) of 48%. For the same molecule, the cell viability (Induction of Apoptosis in CLL Cells), Av. in series [2] (average of the five preceding patient sample columns, peptide electroporated) worked out at 41%. In addition, the “cell viability of CLL cells” value in series [2] (electroporated peptide, FIG. 2) was “minimal or insignificant changes in viability”. Also, in series [2] (electroporated peptide, summary of Table 4), the “cell viability in all the patient CLL samples” value is listed as “minimally effected”.

“NLWAAQRYGREARRMAAEFVDAFKKC-Ahx-(DArg)8 (NLWAAQRYGREARRMAAEFVDAFKKC[Ahx][dR][dR][dR][dR][dR][dR][dR][dR]) [SEQ ID NO: 29, control BAD peptide with poly(DArg)]”: in the series on CLL cells, the change in viability result is reported as “no change in viability”. Moreover, the “intracellular levels of Bcl-2” value in the series with Bcl-2 [1] is recorded as “not observed”.

With “NLWAAQRYGRELRRMSDEFVDSFKKC-Ahx*-(DArg)8 (NLWAAQRYGRELRRMSDEFVDSFKKC[Ahx][dR][dR][dR][dR][dR][dR][dR][dR]) [SEQ ID NO: 28]”, the change in viability entry in the series with CLL cells is listed as “no change in viability”. For the same molecule, the “effect on cell viability” value in the series with CLL cells (patient TJK379 CLL cells, even at 50 μM) was “negligible effect”. Also, the “cell viability of cancer cells (concluding statement)” value in the series with CLL cells (poly-arginine fused peptide, CLL cells) was “dramatically reduce cell viability”.

As to “acetyl-NLWAAQRYGRELRRMADEFVDAFKKC-CRQIKIWFQNRRMKWKK-amide [2336] (D-residues; cyclised or stapled) [compound 2336]”, in series [3] (AML cells of patient AML-349, FIG. 9), the “induction of apoptosis / killing” value is on record as “showed less killing”. Besides, the induction of apoptosis entry in series [3] (AML cells of patient AML-728, FIG. 8) is reported as “does not”. Also, in the series with 697-neo cells, the “activity in reducing cell viability” value was “significantly less active than the 2335 peptide”. In the series with Bcl-2 family Bcl-2/x1, the “binding to Bcl-2” value is on record as “does not bind Bcl-2 family Bcl-2/x1”.

B1: 2335 peptide, acetyl-NLWAAQRYGRELRRMADEFVDAFKKC-CRQIKIWFQNRRMKWKK-amide (SEQ ID NO: 31) (peptide)
peptide 1: Ac-NLWAAQRYGRELRRMADEFVDAFKKC
peptide 2: CRQIKIWFQNRRMKWKK-NH2
modifications: disulfide I:26-II:1
notes: C-C is a disulfide between two peptides, so it is written here as two chains; also called Bad S/A peptide disulfide linked to penetratin; BAD-BH3 peptide
Turning to B1, the binding result with Bcl-2 [4] was “binds”.
